In patent US9040527B2, “Pyrimidinediamine kinase inhibitors” (Rigel Pharmaceuticals, Inc., priority 2008, dated 2015):

How the values were obtained:
PLK1 [1] = target: T1, PLK1 (Homo sapiens, UniProt P53350); assay: Cellular PLK1 assay in K562 cells overexpressing CDC25C; format: cell-based; design: endogenous in cells; host or cells: K562 (human chronic myelogenous leukemia) overexpressing CDC25C, nocodazole-arrested; conditions: nocodazole arrested, cdc25c p-Ser198 readout
Method: (§1) Inhibition of PLK1 was measured by quantifying phosphorylation of PLK1 substrates using chemiluminescent and fluorogenic probes. The protocols for these assays are provided below.
1. Culturing of K562 Cells
Human chronic myelogenous leukemia K562 cells (American Tissue Culture Collection) overexpressing CDC25C, were grown in Growth Medium having the following composition: Iscove Dulbecco's Modified Eagle's Medium (“Iscove DMEM”, Mediatech/Cellgro, Cat. #10-013-CV), 10% Fetal Bovine Serum (“FBS”, SAFC Biosciences, Cat. #12106-500M), and 1% penicillin/streptomycin (“pen-strep”, Mediatech/Cellgro, Cat. #30-002-CI). The cells were plated in 96 well round bottom tissue culture plates (Fisher, Costar* Cell Culture plates, Cat. #07-200-95) at 100,000 cells per 50 μL of Growth Medium per well. Nocodazole (Sigma, Cat. # M1404) was added to the growth media to arrest the cells in the G2 or M phase, at 333 nM concentration. The cells were incubated with nocodazole for 18 hours at 37° C. prior to addition of tested compounds.
2. Treatment of Cells with the Tested Compounds
Solutions of tested compounds in DMSO at different concentrations were prepared using serial dilutions. Each compound was tested at 8 concentration points, 10 μM, 3.3 μM, 1.11 μM, 0.37 μM, 0.12 μM, 0.04 μM, 0.014 μM, 0.005 μM, duplicate replicates.
Two controls were performed: “DMSO alone” control in which nocodazole and DMSO were present but no compounds were added, and “nocodazole alone” control, in which only nocodazole was present, but neither DMSO nor compounds were added.
The solutions of compounds were prepared by diluting 10 mM compound 1:1 in DMSO (5 μL 10 mM compound and 5 μL DMSO), followed by 1:3 serial dilutions of compound in DMSO performed by diluting 3 μL of higher concentration compound solution serially into 6 μL DMSO to give 3-fold dilutions. Next, 3 μL of each compound solution at each concentration was transferred to 750 μL of Growth Medium. In “DMSO alone” control 3 μL of DMSO alone was added to 750 μL of Growth Medium.
After the diluted compounds were mixed well in the Growth Medium, 50 μL of each compound solution in DMSO/Growth Medium was transferred to each well of the 96-plate containing cells in 50 μL of Growth Medium/Nocodazole.
The cells and compounds were incubated for 120 minutes at 37° C., in an atmosphere containing 5% CO2.
3. Fixation and Permeabilization of the Cells
After the cells were incubated with compounds, the cells were spun down at 1,000 rpm for 5 minutes at 4° C. and supernatants were removed by flicking the plates. Cells were then washed with 200 μl of ice cold PBS, spun down again and supernatants removed. Cells were then fixed and permeabilized by addition of 100 μL/well of Fixation and Permeabilization Solution (1× buffer provided in BD Biosciences Cytofix/Cytoperm™ Fixation/Permeabilization kit, Cat. #554714) and incubation for 20 minutes at room temperature. The fixative was then removed by centrifugation (5 minutes at 2,000 rpm), and plates were flicked to remove the fixative and washed twice, each time with 200 μL/well BD Perm/Wash buffer (10× concentrate provided in BD Biosciences Cytofix/Cytoperm™ Fixation/Permeabilization kit, Cat. #554714, 1× buffer prepared by dilution in distilled H2O).
Cells were spun down at 1,000 rpm for 5 minutes at 4° C. Supernatants were removed by flicking the plates. A solution of a primary antibody specific for cdc25cp-Ser198 was prepared by diluting Rabbit cdc25c (Ser198) antibody (Cell Signaling, #9529L) 1:50 in a Fluorescence Activated Cell Sorting (“FACS”) Buffer (2% FBS in PBS). The cell pellets were resuspended in 50 μL of the primary antibody solution. 50 μL of FACS buffer was added to unstained controls. Staining was allowed to proceed overnight at room temperature.
The plates were then washed by addition of 200 μL of FACS Buffer to each well, were centrifuged and the supernatant was removed. […]

PLK1 [2] = target: T1, PLK1; assay: In vitro PLK1 ELISA assay (biochemical); design: purchased Cell Signalling 7728
Method: as §1
In Vitro PLK1 ELISA Assay
1. Preparation of Assay Plates.
Costar 96-well black or white solid flat high binding plates (Fisher Scientific, Catalog No. 07-200-591) were coated with Neutravidin (Pierce, Catalog No. 31000) using the following protocol. A 0.01 mg/mL solution of Neutravidin in 1× Phosphate Buffered Saline (“PBS”, Cellgro/Mediatech, Catalog No. 21-040-CV) was added to each well (100 μL/well) and was incubated for 18-24 hours at 4° C. The plates were then washed with 1× Phosphate Buffer Saline—Tween (“PBST”, Calbiochem, Catalog No. 524653) buffer using a plate washer. The plates were treated with bovine serum albumin (“BSA”, Sigma, Catalog No. A7906) to block non-specific binding sites, by adding a 2% BSA solution in 1×PBST buffer to each well (100 μL/well) and incubating the plates for 1 hour at room temperature. The plates were then washed with 1×PBST buffer using a plate washer.
2. PLK1-Catalyzed Phosphorylation Reaction
An aqueous buffer solution A having the following composition was prepared:
20 mM HEPES (Cellgro/Mediatech, Catalog No. 25-060Ci), pH 7.2;
5 mM MgCl2 (Sigma, Catalog No. M2393);
2 mM MnCl2.4H2O (EM Biosciences, Catalog No. MX0185-2);
1 mM Dithiothreitol (“DTT”, Fluka, Catalog No. B4184).
Next, the substrate solution B was prepared by adding 2.6 μL of 10 mM ATP (Sigma, Catalog No. A7699) and 6.4 μL of the 1 mM PLK1 substrate, CHK2-derived peptide Biotin-SSLETVSTQELYSIP (custom synthesized at Anaspec) SEQ ID: No. 1, to 4691 μL of the buffer solution A. The concentration of the ATP in solution B is 5.44 μM (1.36×); the concentration of the PLK1 substrate in solution B is 1.36 μM (1.36×).
Compound solutions C of varying concentrations for each compound were prepared by dissolving each compound in dimethylsulfoxide (DMSO, Sigma, Catalog No. D2650) to varying concentrations, followed by adding 2 μL of each solution to 38 μL of the buffer solution A, thereby forming 10× compound solutions in 5% DMSO.
A PLK1 solution D was prepared by adding 8.4 μL of 100 μg/mL PLK1 (Cell Signalling, Catalog No. 7728) to 1392 μL of the buffer solution A, thereby forming 0.6 μg/mL (6×) PLK1 solution.
The aqueous 1.36× substrate solution B was added to each well (44 μL/well) resulting in binding of the substrate to the plate via biotin/neutravidin interaction. Then 10× compound solutions C for each tested compound at each tested concentration were added to each well (6 μL/well). Next, 6×PLK1 solution D was added to each well (10 μL/well).
The final concentrations of tested compounds in each well were 10 μM, 3.3 μM, 1.1 μM, 0.36 μM, 0.12 μM, 0.04 μM, 0.014 μM, and 0.005 μM.
The obtained reaction mixtures were incubated in the wells for 45 minutes at room temperature, allowing PLK1-catalyzed phosphorylation of the substrate to proceed. The plates were then washed with 1×PBST solution using a plate washer, such that the bound phosphorylated or unphosphorylated substrate remains attached to the wells upon washing.
The washed plates were developed by treating the plates with a primary antibody that is specific for the phosphorylated substrate, followed by treatment with a secondary antibody that is specific for the primary antibody, and that is capable of catalyzing a reaction that results in a chemiluminescent readout. The chemiluminescent readout was used to quantify the substrate phosphorylation, and, consequently, to determine IC50 values for PLK1 inhibition, and was measured using a luminometer (Perkin Elmer/Wallac plate reader). The plate development protocol is described below.
A mixed antibody solution E was prepared by adding 1 μL of the primary antibody, rabbit p-CHK2(T68) (Rockland, Catalog No. 401280), and 1 μL of the secondary antibody, HRP-goat anti-rabbit IgG (Jackson Immunoresearch Catalog No. 111-035-003) to 10000 μL of 0.1% BSA in 1×PBST buffer. […]

[3] = ELISA, CHK2-derived peptide substrate, read-out: PLK1 IC50 (μM) biochemical assay
[4] = read-out: IC50 in biochemical ELISA assay (less than 0.01 μM)
[5] = read-out: IC50 in biochemical in vitro PLK1 ELISA assay (less than 10 μM)

T1 sequence (P53350 whole entry): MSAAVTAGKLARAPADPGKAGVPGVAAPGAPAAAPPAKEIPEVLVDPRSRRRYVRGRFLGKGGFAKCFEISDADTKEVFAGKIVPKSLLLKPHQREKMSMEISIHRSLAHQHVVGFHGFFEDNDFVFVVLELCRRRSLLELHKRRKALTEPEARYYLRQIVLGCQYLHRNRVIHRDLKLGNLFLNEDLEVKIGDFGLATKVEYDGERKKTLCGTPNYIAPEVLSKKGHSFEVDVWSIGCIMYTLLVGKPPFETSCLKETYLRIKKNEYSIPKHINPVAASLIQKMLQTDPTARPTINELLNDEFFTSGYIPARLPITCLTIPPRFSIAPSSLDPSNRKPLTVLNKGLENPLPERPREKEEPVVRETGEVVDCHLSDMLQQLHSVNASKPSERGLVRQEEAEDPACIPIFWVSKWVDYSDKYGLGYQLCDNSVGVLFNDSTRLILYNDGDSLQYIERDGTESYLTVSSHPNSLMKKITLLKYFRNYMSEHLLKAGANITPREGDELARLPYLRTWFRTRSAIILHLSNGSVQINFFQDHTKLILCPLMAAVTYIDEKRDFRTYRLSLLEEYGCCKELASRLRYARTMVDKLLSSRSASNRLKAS

SMILES | IC50 (PLK1 [1]) [µM] | IC50 (PLK1 [2]; [3]) [µM] | IC50 (PLK1 [2]; [4]) [µM] | IC50 (PLK1 [2]; [5]) [µM]
CN1CC2CC1CN2c1cccc(Nc2ncc(F)c(Nc3ccc4c(n3)NCCO4)n2)c1 (centres unmarked) [compound 42, N4-(3,4-dihydro-2H-pyrido[3,2-b][1,4]oxazin-6-yl)-5-fluoro-N2-(3-(5-methyl-2,5-diazabicyclo[2.2.1]heptan-2-yl)phenyl)pyrimidine-2,4-diamine] | < 0.5 | < 0.5 | < 0.01 | < 10
Cc1cnc(Nc2cccc(N3CCN(C)CC3)c2)nc1Nc1ccc2c(n1)N(CC1CCC1)C(=O)CO2 [compound 130, 4-(cyclobutylmethyl)-6-(5-methyl-2-(3-(4-methylpiperazin-1-yl)phenylamino)pyrimidin-4-ylamino)-2H-pyrido[3,2-b][1,4]oxazin-3(4H)-one] | 0.5 to 5 | < 0.5 | < 0.01 | < 10
COc1ccc(CN2C(=O)COc3ccc(Nc4nc(Nc5ccc(N6CCN(C)CC6)c(C)c5)ncc4F)nc32)cc1 [compound 124, 6-(5-fluoro-2-(3-methyl-4-(4-methylpiperazin-1-yl)phenylamino)pyrimidin-4-ylamino)-4-(4-methoxybenzyl)-2H-pyrido[3,2-b][1,4]oxazin-3(4H)-one] | ≥ 10 | ≥ 10 | – | –
Cc1cnc(Nc2cccc(N3CCN(C)CC3)c2)nc1Nc1ccc2c(n1)NC(=O)CO2 [compound 51, 6-(5-methyl-2-(3-(4-methylpiperazin-1-yl)phenylamino)pyrimidin-4-ylamino)-2H-pyrido[3,2-b][1,4]oxazin-3(4H)-one] | 0.5 to 5 | < 0.5 | < 0.01 | < 10
CC(C)c1ccc(N2CCN(C)CC2)cc1Nc1ncc(F)c(Nc2ccc3c(n2)NC(=O)CO3)n1 [compound 43, 6-(5-fluoro-2-(2-isopropyl-5-(4-methylpiperazin-1-yl)phenylamino)pyrimidin-4-ylamnino)-2H-pyrido[3,2-b][1,4]oxazin-3(4H)-one] | < 0.5 | < 0.5 | – | < 10
CCN1C(=O)COc2ccc(Nc3nc(Nc4ccc(N5CCN(C)CC5)cc4)ncc3C)cc21 [compound 189, 4-ethyl-6-(5-methyl-2-(4-(4-methylpiperazin-1-yl)phenylamino)pyrimidin-4-ylamino)-2H-benzo[b][1,4]oxazin-3(4H)-one] | 0.5 to 5 | 0.5 to 5 | – | < 10
CN1CCN(c2cccc(Nc3ncc(F)c(Nc4ccc5c(n4)NC(=O)C(C)(C)O5)n3)c2)CC1 [compound 161, 6-(5-fluoro-2-(3-(4-methylpiperazin-1-yl)phenylamino)pyrimidin-4-ylamino)-2,2-dimethyl-2H-pyrido[3,2-b][1,4]oxazin-3(4H)-one] | 0.5 to 5 | < 0.5 | – | < 10
CN1CCN(c2cc(Nc3ncc(F)c(Nc4ccc5c(n4)NC(=O)CO5)n3)cc(C3CC3)c2)CC1 [compound 50, 6-(2-(3-cyclopropyl-5-(4-methylpiperazin-1-yl)phenylamino)-5-fluoro-pyrimidin-4-ylamino)-2H-pyrido[3,2-b][1,4]oxazin-3(4H)-one] | < 0.5 | < 0.5 | < 0.01 | < 10
Cc1cc(Nc2ncc(C)c(Nc3ccc4c(n3)N(C3CCCC3)C(=O)CO4)n2)ccc1N1CCN(C)CC1 [compound 117, 4-cyclopentyl-6-(5-methyl-2-(3-methyl-4-(4-methylpiperazin-1-yl)phenylamino)pyrimidin-4-ylamino)-2H-pyrido[3,2-b][1,4]oxazin-3(4H)-one] | ≥ 10 | ≥ 10 | – | –
CN1CCN(c2cccc(Nc3ncc(F)c(Nc4ccc5c(n4)N(CC4CCC4)C(=O)CO5)n3)c2)CC1 [compound 109, 4-(cyclobutylmethyl)-6-(5-fluoro-2-(3-(4-methylpiperazin-1-yl)phenylamino)pyrimidin-4-ylamino)-2H-pyrido[3,2-b][1,4]oxazin-3(4H)-one] | 0.5 to 5 | < 0.5 | – | < 10
